No end group written: not given here.
How the values were obtained:
MR = target: T1, MR (Homo sapiens, UniProt P08235); assay: MR transcriptional reporter assay, agonist mode (HEPG2 cells); format: cell-based; conditions: % of maximal aldosterone-stimulated activity
T1 construct: expressed in transfected cells; host or cells: HEPG2
T1 sequence (P08235 1-984): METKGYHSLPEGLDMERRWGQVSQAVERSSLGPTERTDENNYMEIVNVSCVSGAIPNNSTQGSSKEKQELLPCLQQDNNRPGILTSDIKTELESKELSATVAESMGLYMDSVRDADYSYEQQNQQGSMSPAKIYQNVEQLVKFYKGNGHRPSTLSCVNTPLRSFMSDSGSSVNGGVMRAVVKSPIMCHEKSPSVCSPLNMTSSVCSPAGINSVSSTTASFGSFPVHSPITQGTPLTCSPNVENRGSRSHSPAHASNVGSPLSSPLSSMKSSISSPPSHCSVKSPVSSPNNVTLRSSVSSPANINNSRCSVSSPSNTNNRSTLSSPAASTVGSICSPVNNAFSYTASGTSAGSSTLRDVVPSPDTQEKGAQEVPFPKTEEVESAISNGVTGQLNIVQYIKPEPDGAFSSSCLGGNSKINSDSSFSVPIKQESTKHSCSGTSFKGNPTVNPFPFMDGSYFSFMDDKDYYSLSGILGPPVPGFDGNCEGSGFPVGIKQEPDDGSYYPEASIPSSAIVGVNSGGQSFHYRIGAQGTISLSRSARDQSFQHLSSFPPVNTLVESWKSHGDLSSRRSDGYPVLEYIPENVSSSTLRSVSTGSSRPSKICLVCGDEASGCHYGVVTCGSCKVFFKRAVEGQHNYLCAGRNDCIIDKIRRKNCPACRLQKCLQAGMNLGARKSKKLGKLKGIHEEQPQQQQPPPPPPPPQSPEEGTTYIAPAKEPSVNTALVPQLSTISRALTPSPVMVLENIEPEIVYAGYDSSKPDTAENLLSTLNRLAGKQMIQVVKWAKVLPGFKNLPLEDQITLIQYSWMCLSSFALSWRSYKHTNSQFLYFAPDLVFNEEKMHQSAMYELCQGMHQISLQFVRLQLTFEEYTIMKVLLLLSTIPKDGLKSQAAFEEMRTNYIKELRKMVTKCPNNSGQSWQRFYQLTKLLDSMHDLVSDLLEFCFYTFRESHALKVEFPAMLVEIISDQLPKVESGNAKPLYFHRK
Method: (§1) Transcriptional assays were performed by seeding 100 μL of cells at a density of 250,000 cells/mL into 96-well cell culture plates in RPMI 1640 supplemented with 5% charcoal-stripped serum and allowed to attach overnight. […] Triplicate transfections were performed using 418 ng reporter vector (2X PRE-Luciferase for PR-A and PR-B, MMTV-Luciferase for MR), 50 ng CMVpRL (normalization vector), 10 ng NHR expression vector (CMX-PR-A, pCDNA-PR-B or 6R-MR), and 0.7 μL lipofectin. […] The final agonist concentration used in the antagonist assays was 1 nM. Following 24 hr incubation, the medium was removed and the cells were lysed in 40 μL of lysis buffer (25 mM Tris Phosphate, 2 mM CDTA, 10% Glycerol, 0.5% Triton X-100, 2 mM DTT). Firefly luciferase activity was measured immediately following the addition of 40 μL luciferase buffer (20 mM tricine, 0.1 mM EDTA, 1.07 mM (MgCO3)4 Mg(OH)2· 5H2O, 2.67 mM MgSO4, 33.3 mM DTT, 270 μM Coenzyme A, 470 μM luciferin, 530 μM ATP).

PR-A = target: T2, PR-A (Homo sapiens, UniProt P06401); assay: PR-A transcriptional reporter assay, agonist mode (HEPG2 cells); format: cell-based; design: subcloning full-length PRa into pCMX; expressed in transfected cells; host or cells: HEPG2; conditions: % of maximal R5020-stimulated activity
T2 sequence (P06401 1-769 isoform P06401-2): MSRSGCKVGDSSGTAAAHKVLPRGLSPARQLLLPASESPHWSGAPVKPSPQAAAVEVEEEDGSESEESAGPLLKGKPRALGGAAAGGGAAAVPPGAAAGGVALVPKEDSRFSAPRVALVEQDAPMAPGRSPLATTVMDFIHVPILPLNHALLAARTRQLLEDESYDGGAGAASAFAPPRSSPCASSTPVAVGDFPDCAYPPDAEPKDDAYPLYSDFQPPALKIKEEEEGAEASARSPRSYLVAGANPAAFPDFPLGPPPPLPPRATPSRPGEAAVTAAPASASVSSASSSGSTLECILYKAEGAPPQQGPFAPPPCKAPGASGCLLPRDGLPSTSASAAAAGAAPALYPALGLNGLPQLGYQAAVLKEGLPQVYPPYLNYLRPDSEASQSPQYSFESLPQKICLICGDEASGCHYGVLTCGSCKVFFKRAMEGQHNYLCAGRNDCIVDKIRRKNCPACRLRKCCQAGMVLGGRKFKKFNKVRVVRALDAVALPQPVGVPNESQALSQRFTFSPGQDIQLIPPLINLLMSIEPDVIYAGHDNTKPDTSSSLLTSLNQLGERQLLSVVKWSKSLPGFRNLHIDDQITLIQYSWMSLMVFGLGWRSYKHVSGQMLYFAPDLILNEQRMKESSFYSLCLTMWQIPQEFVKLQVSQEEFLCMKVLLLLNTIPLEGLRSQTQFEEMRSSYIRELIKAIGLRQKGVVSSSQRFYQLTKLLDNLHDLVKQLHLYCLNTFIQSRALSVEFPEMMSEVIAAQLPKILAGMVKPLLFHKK
Method: as §1

GR = target: T3, GR (Homo sapiens, UniProt P04150); assay: GR transcriptional reporter assay, agonist mode (CV1 cells); format: cell-based; conditions: CV-1; % of maximal dexamethasone-stimulated activity
T3 sequence (P04150 1-777): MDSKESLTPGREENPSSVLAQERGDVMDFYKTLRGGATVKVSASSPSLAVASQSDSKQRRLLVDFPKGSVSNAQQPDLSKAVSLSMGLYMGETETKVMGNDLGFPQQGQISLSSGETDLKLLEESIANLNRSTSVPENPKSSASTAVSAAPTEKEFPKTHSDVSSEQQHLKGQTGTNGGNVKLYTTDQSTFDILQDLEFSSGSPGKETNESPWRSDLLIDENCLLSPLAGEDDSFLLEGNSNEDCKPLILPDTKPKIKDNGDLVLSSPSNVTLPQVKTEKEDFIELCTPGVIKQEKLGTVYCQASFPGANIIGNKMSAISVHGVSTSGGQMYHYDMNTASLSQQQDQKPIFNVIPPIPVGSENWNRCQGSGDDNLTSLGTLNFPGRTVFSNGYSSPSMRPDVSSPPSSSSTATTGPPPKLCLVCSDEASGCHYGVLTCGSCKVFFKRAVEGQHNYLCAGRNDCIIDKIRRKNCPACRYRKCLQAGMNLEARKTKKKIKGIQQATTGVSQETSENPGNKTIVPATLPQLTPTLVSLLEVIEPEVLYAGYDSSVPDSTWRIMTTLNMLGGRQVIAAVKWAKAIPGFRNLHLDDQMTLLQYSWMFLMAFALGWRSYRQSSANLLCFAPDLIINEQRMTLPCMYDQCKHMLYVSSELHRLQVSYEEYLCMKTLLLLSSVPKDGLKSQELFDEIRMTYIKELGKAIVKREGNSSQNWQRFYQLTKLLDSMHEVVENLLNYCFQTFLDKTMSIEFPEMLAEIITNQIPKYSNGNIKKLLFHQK
Method: CV1 cells were maintained in MEM supplemented with 10% FBS. Transcriptional assays were performed by seeding 12 mL of cells at a density of 250,000 cells/mL into a T-75 cell culture flask in MEM supplemented with 5% charcoal-stripped serum and allowed to attach overnight. Cells were transiently transfected using FuGENE 6 (Roche Applied Science). […] Transfected cells were incubated overnight then split into four 96-well tissue culture plates and incubated for 4 hr followed by compound addition. […] The final agonist concentration used in the antagonist assays was 10 nM.

PR-B = target: T4, PR-B (Homo sapiens, UniProt P06401); assay: PR-B transcriptional reporter assay, agonist mode (HEPG2 cells); format: cell-based; conditions: % of maximal R5020-stimulated activity
T4 construct: cloning full-length human PRb into pCDNA; expressed in transfected cells; host or cells: HEPG2
T4 sequence (P06401 1-933): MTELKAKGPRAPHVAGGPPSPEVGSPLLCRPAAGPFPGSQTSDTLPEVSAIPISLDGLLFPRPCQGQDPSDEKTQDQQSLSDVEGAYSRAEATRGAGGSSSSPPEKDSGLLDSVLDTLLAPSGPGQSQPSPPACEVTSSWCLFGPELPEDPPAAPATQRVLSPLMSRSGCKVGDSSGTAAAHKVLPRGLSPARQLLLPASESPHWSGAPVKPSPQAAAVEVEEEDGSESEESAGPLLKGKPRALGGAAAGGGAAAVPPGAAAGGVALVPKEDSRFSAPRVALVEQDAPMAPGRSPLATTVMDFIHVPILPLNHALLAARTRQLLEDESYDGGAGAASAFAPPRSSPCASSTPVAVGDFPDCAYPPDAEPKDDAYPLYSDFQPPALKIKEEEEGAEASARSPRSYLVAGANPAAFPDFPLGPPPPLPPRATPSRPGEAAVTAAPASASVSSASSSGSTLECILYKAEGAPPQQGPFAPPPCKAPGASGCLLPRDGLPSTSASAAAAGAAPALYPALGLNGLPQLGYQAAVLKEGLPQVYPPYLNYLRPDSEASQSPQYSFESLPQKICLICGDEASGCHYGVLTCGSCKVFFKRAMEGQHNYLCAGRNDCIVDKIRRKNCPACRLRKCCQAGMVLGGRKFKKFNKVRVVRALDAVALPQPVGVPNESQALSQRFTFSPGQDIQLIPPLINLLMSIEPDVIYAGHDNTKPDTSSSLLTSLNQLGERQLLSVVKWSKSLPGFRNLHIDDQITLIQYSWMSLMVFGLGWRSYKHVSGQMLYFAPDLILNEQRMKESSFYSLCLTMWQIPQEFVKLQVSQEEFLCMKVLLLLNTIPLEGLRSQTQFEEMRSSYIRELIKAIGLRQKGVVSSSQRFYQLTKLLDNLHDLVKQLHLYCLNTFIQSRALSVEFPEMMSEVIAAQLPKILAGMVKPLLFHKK

[1] = target: T5, human estrogen receptor alpha, GST-tagged ESR1 ligand binding domain, residues S282-V595, wild-type sequence (human, UniProt P03372 282-595); assay: FRET or BRET; cell-free TR-FRET PGC1α recruitment assay; GST-ERα LBD (3x solution 22 nM) detected with Tb-anti-GST antibody (3x mix 15 nM), Fluorescein-PGC1α peptide (3x mix 750 nM), estradiol (3x mix 12 nM; agonist at EC80), TR-FRET Co-regulator Buffer E with 7.5 mM DTT, 2 hr at room temperature; GDC-0810 titrated as small-molecule competitor; conditions: both partners purified
T5 construct: Detected in the TR-FRET assay through a LanthaScreen Tb-anti-GST antibody; also called ER.WT; ERα LBD
T5 sequence (looked up): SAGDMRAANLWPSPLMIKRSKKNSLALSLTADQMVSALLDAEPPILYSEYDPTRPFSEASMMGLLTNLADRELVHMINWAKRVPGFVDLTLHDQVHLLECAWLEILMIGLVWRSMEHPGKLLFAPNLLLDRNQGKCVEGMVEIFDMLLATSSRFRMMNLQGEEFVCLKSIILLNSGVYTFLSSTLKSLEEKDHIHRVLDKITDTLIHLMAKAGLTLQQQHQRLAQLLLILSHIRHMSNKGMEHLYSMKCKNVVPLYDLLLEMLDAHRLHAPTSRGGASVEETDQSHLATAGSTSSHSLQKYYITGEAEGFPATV

CC(=O)S[C@@H]1CC2=CC(=O)CC[C@]2(C)[C@H]2CC[C@@]3(C)[C@@H](CC[C@@]34CCC(=O)O4)[C@H]12 [Spironolactone]
Emax (MR): 6.24 ± 0.37%

CC#C[C@]1(O)CC[C@H]2[C@@H]3CCC4=CC(=O)CCC4=C3[C@@H](c3ccc(N(C)C)cc3)C[C@@]21C [RU-486]
Emax (PR-A): 13.3 ± 10.2% | Emax (GR): 8.06 ± 0.66% | Emax (PR-B): 3.25 ± 1.17%

B1: Fluorescein-PGC1α peptide (peptide)
peptide: EAEEPSLLKKLLLAPANTQ
modifications: also: fluorescein (position not given here)
notes: source: bought: Life Technologies PV4421
binding result [1]: binds

Reference: publication PMC4961458 (eLife, 2016)
